Reference: patent US20240207327A1, “COMPOSITION INCLUDING PROPOLIS AND SORBUS COMMIXTA AS ACTIVE INGREDIENTS FOR ALLEVIATING AND TREATING INFLAMMATORY DISEASES AND ALLERGIC DISEASES” (Andong National University Industry-Academic Cooperation …, priority 2022, published 2024)

What was measured:
[1] = system: RAW 264.7 cell line; assay: Nitric oxide (NO) production assay in LPS-treated RAW 264.7 (Griess reagent); assay type: cell-based, mouse; conditions: for NO production rate compared with control / NO production, combined treatment / NO production compared to the control: LPS 100 ng/mL; for NO production rate compared with control / NO production compared to the control: independent treatment; for NO production rate compared with control: 10 μg/mL; for inhibitory effect on NO production (in words): LPS-induced RAW 264.7, independent treatment
Protocol: (§1) RAW 264.7 cell line, a mouse macrophage cell line was purchased from KCLB (Korean Cell Line Bank, Korea). After RAW 264.7 was added with 10% fetal bovine serum (FBS, GIBCO, USA) and 1% antibiotics-antimycotic (GIBCO, USA), the cell was subcultured in Dulbecco's modified Eagle's medium (DMEM, WELGENE, Korea) in a 37° C., 5% CO2 incubator (Thermo Fisher Inc., USA).
After RAW 264.7 cell line was independently treated with any one of the flavonoid componentsor Sorbus commixta extract, and was combinedly treated with any one of the flavonoid components and the Sorbus commixta extract, an evaluation of Nitric Oxide production (NO assay) was conducted to identify effects on NO secretion induced by LPS.
At this time, RAW 264.7 cells were seeded at 1×10^5 cells/well in 96-well plates and cultured in a 37° C., 5% CO2 incubator for 24 hours. Each cell was pretreated with samples by concentration (pinocembrin, quercetin, kaempferol, glangin, and chrysin at concentrations of 1, 2.5, 5, and 10 μg/mL, caffeic acid and p-Coumaric acid at concentrations of 2.5, 5, 10, and 25 μg/mL, and Sorbus commixta ethanol extract at concentrations of 25, 50, 100, and 250 ppm), respectively, and then the cells were treated with LPS (Sigma-Aldrich Inc, USA) to a final concentration of 100 ng/mL to induce the inflammatory response for 20 hours. After the induction of the inflammatory response, a 100 μL supernatant of a 96-well plate was added with a 100 μL Griess reagent (Sigma-Aldrich Inc., USA) at a concentration of 40 mg/mL (in water), and reacted in the dark for 15 minutes, and the optical density was measured at 540 nm using a Tecan infinite 200 microplate reader (Tecan Trading AG, Switzerland). A quantitative line was drawn using Sodium nitrite (Sigma-Aldrich Inc., USA), and each value of optical density was substituted to the quantitative line to determine the amount of produced Nitric Oxide (NO).
In the inflammatory response of macrophages induced by LPS treatment, the treatment effects of any one of the flavonoid components or Sorbus commixta ethanol extract on NO production were determined.

[2] = system: RBL-2H3 basophilic cell line; assay: beta-Hexosaminidase release assay (degranulation by anti-DNP-IgE / DNP-BSA); assay type: cell-based, Rat; conditions: for beta-Hexosaminidase released compared to the positive control / degree of degranulation of RBL-2H3 cells (in words): independent treatment; for beta-Hexosaminidase released compared to the positive control: 1 hour pretreatment
Protocol: Effects of quercetin, kaempferol, chrysin, and Sorbus commixta ethanolic extract on allergic response were determined by measuring the release of beta-Hexosaminidase through degranulation caused by the antibody-antigen binding in the RBL-2H3 basophilic cells. The RBL-2H3 basophilic cell line of Rat was purchased from ATCC (American Type Culture Collection, USA), and then it was added with a 10% fetal bovine serum and a 1% antibiotics-antimycotic in Dulbecco's modified Eagle's medium, and was subcultured in a 37° C., 5% CO2 incubator. A beta-Hexosaminidase release assay was carried out to figure out effects of independent treatment of any one of the flavonoid components or the Sorbus commixta ethanolic extract, and combined treatment of any one of the flavonoid components (quercetin, kaempferol, chrysin) with Sorbus commixta ethanolic extract on the release of beta-Hexosaminidase through the degranulation of RBL-2H3 basophilic cell line. The RBL-2H3 cells were seeded at 8×10^4 cells/well in the 96 well plates, and stabilized in a 37° C., 5% CO2 incubator for 3 hours, then treated with anti-DNP-IgE (Sigma-Aldrich Inc., USA) to a final concentration of 250 ng/mL for cell sensitization, and incubated for 24 hours. After culturing, the supernatant liquid was removed and washed twice with Siraganian buffer (NaCl 119 mM, KCl 5 mM, Glucose 5.6 mM, PIPES 25 mM, MgCl2, 0.4 mM, CaCl2 1 mM, BSA 0.1%, pH 7.2, Biosolution, Korea), and concentration-specific samples dissolved in Siraganian buffer were pretreated into the cells for 1 hour. After the pretreatment, the final concentration of DNP-BSA (Sigma-Aldrich Inc., USA) was treated to be at 150 ng/mL, and cultured for 1 hour to induce degranulation. After degranulation induction, 80 μL of supernatant and 20 μL of 10 mM 4-Nitrophenyl N-acetyl-β-D-glucosaminide (in 0.1 M citrate buffer, pH 4.5, Sigma-Aldrich Inc., USA) were reacted in the 96 well plate for 4 hours at a 37° C. incubator. After 4 hours, the reaction was terminated by adding 100 μL of 0.5 M sodium carbonate, and the optical density was measured at 405 nm using a Tecan infinite 200 microplate reader. First, RBL-2H3 cells' degranulation induced by antibody-antigen binding was determined when independently treated with any one of the flavonoid components or Sorbus commixta ethanolic extract. RBL-2H3 cells were sensitized with antibodies for one day, pretreated with different concentration levels of 3 selected flavonoid components, or Sorbus commixta ethanol extract for one hour, followed by additionally being treated with antigens. A group treated with neither the extract nor the antigen was a negative control, and a group independently treated with ethanol as the solvent for the sample and induced for degranulation only was a positive control. When RBL-2H3 cell degranulation is induced by antibody-antigen binding, beta-Hexosaminidase, an indicator of early response is released. On top of that, a substrate addition (P-NAG) leads to the degradation of the substrate and the suspension of the degradation reaction, resulting in a color change. In that case, the amount of beta-hexosaminidase may be determined by measuring the optical density, which may it possible to compare the degree of induced inhibition or induced activation of degranulation. The changes in the amount of beta-Hexosaminidase released by the combined treatment of the Sorbus commixta ethanolic extract with any one of the three selected active ingredients of the flavonoid components were intended to be determined. A group treated with neither the extract nor the antigen was a negative control, and a group independently treated with ethanol as the solvent for the sample and induced for degranulation only was a positive control.

[3] = system: RAW 264.7 cell line; assay: MTT cell viability assay, RAW 264.7; assay type: cell-based; conditions: mouse, 24 h, 10 μg/mL
Protocol: as §1
A cell viability rate was analyzed by carrying out an MTT assay in order to determine the toxicity of the flavonoid components and Sorbus commixta ethanolic extract on the cell line treatment. The RAW 264.7 cell line was seeded 5×10^4 cells/well in a 96 well plate, and cultured in a 37° C., 5% CO2 incubator. After the culture, the flavonoid components and Sorbus commixta ethanolic extract were treated and additionally treated for the next 24 hours. After the additional culture, a 0.1 mg/mL MTT solution (Sigma-Aldrich Inc., USA) was dispensed in each well, the cells were cultured for 4 hours before the supernatant was removed. The resulting formazan was dissolved by seeding 100 μL of DMSO (Sigma-Aldrich Inc., USA) into each well, followed by orbital shaking (87.9 rpm) for 15 minutes, and optical density was measured at 540 nm using a Tecan infinite 200 microplate reader. The measured values of optical density were described as a percentage by substituting into the equation below. […]

[4] = flavonoid 1 μg/mL (first of series) combined with Sorbus commixta ethanol extract
[5] = flavonoid 2.5 μg/mL (second of series) combined with Sorbus commixta ethanol extract
[6] = flavonoid 5 μg/mL (third of series) combined with Sorbus commixta ethanol extract
[7] = flavonoid 10 μg/mL (fourth of series) combined with Sorbus commixta ethanol extract
[8] = 1 μg/mL (first of series 1, 2.5, 5, 10 μg/mL)

Row | Molecule | NO production rate compared with control [1] | NO production, combined treatment [1, 4] | NO production, combined treatment [1, 5] | NO production, combined treatment [1, 6] | NO production, combined treatment [1, 7] | NO production compared to the control [1, 8] | NO production compared to the control ([1]; 2.5 μg/mL (second of series)) | NO production compared to the control ([1]; 5 μg/mL (third of series)) | production rate of beta-Hexosaminidase compared to the control group ([2]; 1 μg/mL mixed with 25 ppm of Sorbus commixta ethanol extract) | beta-Hexosaminidase released compared to the positive control ([2]; 1 μg/mL) | cell viability rate [3] | inhibitory effect on NO production (in words) [1] | production rate of beta-Hexosaminidase compared to the control group ([2]; 2.5 μg/mL mixed with 25 ppm of Sorbus commixta ethanol extract) | degree of degranulation of RBL-2H3 cells (in words) [2] | beta-Hexosaminidase released compared to the positive control ([2]; 0.5 μg/mL) | production rate of beta-Hexosaminidase compared to the control group ([2]; 0.5 μg/mL mixed with 25 ppm of Sorbus commixta ethanol extract)
1 | O=C(O)/C=C/c1ccc(O)c(O)c1 [caffeic acid] | 97% | – | – | – | – | – | – | – | – | – | – | – | – | – | – | –
2 | O=c1cc(-c2ccccc2)oc2cc(O)cc(O)c12 [chrysin] | 10% | 72% | 55% | 38% | 9% | 89% | 74% | 43% | 95.9% | 83% | – | – | – | – | – | –
3 | O=c1c(O)c(-c2ccccc2)oc2cc(O)cc(O)c12 [galangin] | 82% | – | – | – | – | – | – | – | – | – | greater than 80% | – | – | – | – | –
4 | O=c1c(O)c(-c2ccc(O)cc2)oc2cc(O)cc(O)c12 [kaempferol] | 42% | 75% | 71% | 60% | 39% | 92% | 85% | 66% | – | – | – | highest inhibitory effect on NO production | 79.8% | decreased the degree of degranulation | 85% | –
5 | O=C1C[C@@H](c2ccccc2)Oc2cc(O)cc(O)c21 [pinocembrin] | 90% | – | – | – | – | – | – | – | – | – | greater than 80% | – | – | – | – | –
6 | O=c1c(O)c(-c2ccc(O)c(O)c2)oc2cc(O)cc(O)c12 [quercetin] | 41% | 78% | 70% | 55% | 39% | 97% | 81% | 63% | – | – | – | highest inhibitory effect on NO production | – | decreased the degree of degranulation | 64% | 86.8%
7 | p-coumaric acid (4-Hydroxycinnamic acid) | 90% | – | – | – | – | – | – | – | – | – | – | – | – | – | – | –
